Assays:
PPARγ LBD = target: T1, PPARγ LBD (Homo sapiens, UniProt P37231); test: LBD-hPPARs transactivation assay (GAL4-LBD luciferase reporter in COS-7 cells); assay type: cell-based; settings: 48 h
T1 construct: expressed in transfected cells; host or cells: COS-7
T1 sequence (P37231 238-503 limits assumed): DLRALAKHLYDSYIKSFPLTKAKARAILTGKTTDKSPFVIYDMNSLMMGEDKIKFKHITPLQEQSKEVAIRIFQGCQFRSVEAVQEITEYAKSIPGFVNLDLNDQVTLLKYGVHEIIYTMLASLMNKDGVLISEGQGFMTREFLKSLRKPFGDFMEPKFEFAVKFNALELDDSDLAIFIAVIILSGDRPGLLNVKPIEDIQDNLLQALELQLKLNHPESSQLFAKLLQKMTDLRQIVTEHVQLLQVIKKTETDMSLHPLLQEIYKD
Excerpt: LBD-hPPARs Transactivation Assay
COS-7 cells were cultivated in 24-well plates and transfected with the pFACMV plasmids that encode the chimeric proteins containing the GAL4 DNA binding domain fused to the PPARγ LBD. The reporter plasmid for the foregoing constructions was pFR-Luc, which contains five repetitions of the GAL4-response element in front of a promoter that controls the transcription of the luciferase gene. Lipofectamine was used as a transfection agent.
The plasmids of the chimeric receptors and the reporter gene were inserted in the cells by transitory transfection in COS-7 cells in culture.

GST-hPPARγ2 = target: T2, GST-hPPARγ2 (Homo sapiens, UniProt P37231); test: Assay of binding to the PPARγ2 ([3H]BRL-49853 displacement); settings: Table 19; GST-hPPARγ2, [3H]BRL-49853 100 nM; read-out: Affinity PPARγ(1)
T2 construct: the complete cDNA of the […] human PPARs were cloned into pGEX4T2; made in house; host or cells: Escherichia coli BL21 (DE3)
T2 sequence (P37231 1-505): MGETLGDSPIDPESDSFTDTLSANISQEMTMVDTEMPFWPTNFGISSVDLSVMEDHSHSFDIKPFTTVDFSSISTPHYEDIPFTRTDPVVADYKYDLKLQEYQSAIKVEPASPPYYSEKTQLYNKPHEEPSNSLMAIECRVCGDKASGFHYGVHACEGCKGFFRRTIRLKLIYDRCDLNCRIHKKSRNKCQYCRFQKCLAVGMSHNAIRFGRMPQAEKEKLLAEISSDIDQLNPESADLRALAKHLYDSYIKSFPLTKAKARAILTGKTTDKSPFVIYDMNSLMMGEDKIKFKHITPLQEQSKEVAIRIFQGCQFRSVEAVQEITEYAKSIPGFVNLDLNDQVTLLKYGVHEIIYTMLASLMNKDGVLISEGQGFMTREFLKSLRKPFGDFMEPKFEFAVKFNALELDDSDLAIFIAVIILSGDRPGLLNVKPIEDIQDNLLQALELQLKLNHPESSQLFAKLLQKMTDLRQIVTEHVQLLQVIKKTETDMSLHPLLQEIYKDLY
Description: Assay of Binding to the PPARγ2
The cDNA encoding for the open reading frame of the hPPARγ2 is amplified by PCR (polymerase chain reaction) and inserted in the plasmid pGEX-4T-2.
The reaction mixture was transferred to a Multiscreen Durapore (Millipore) microplate containing glutathione-Sepharose 4B in every well. The reaction mixture was left to incubate with the resin during 10 min, and then centrifuged at 735 g during 2 min. To dissociate the receptor bound to the resin, reduced glutathione 10 mM is added and incubated during 10 min. The receptor was eluted by centrifugation. Then, 800 μL of scintillation liquid were added to the elution and the contained radioactivity was quantified by liquid scintillation spectroscopy (Microbeta Wallac, Perkin Elmer).

SMILES	Functional activity PPARγ (PPARγ LBD)	Ki (GST-hPPARγ2) [nM]
COC(=O)[C@H](Cc1ccc(OCc2ccccc2)cc1)NC(=O)c1ccc(OCc2ccccc2Cl)cc1 [Example 20, (2S)-3-(4-Benzyloxyphenyl)-2-[4-(2-chlorobenzyloxy)benzoylamino]propionic acid methyl ester]	Partial agonist	< 1000
COC(=O)[C@H](Cc1ccc(OCc2ccccc2)cc1)NC(=O)c1ccc(OCc2cccc(Cl)c2)cc1 [Example 21, (2S)-3-(4-Benzyloxyphenyl)-2-[4-(3-chlorobenzyloxy)benzoylamino]propionic acid methyl ester]	Partial agonist	< 1000
COC(=O)[C@H](Cc1ccc(OCc2ccccc2)cc1)NC(=O)c1ccc(OCc2ccccc2C)cc1 [Example 27, (2S)-3-(4-Benzyloxyphenyl)-2-[4-(2-methylbenzyloxy)benzoylamino]propionic acid methyl ester]	Antagonist	< 1000
COC(=O)[C@H](Cc1ccc(OCc2ccccc2)cc1)NC(=O)c1ccc(OCCOc2nc3ccccc3nc2C)cc1 [Example 95, (2S)-3-(4-Benzyloxyphenyl)-2-{4-[2-(3-methylquinoxalin-2-yloxy)ethoxy]benzoylamino}propionic acid methyl ester]	Agonist	< 1000
COC(=O)[C@H](Cc1ccc(OCc2ccccc2)cc1)NC(=O)c1ccc(OCCOc2cccc3cccnc23)cc1 [Example 98, (2S)-3-(4-Benzyloxyphenyl)-2-{4-[2-(quinolin-8-yloxy)ethoxy]-benzoylamino}propionic acid methyl ester]	Antagonist	< 1000
O=C(N[C@@H](Cc1ccc(OCc2ccccc2)cc1)C(=O)O)c1ccc(OCc2ccccc2)cc1 [Example 129, (2S)-2-(4-Benzyloxybenzoylamino)-3-(4-benzyloxyphenyl)propionic acid]	Partial agonist	< 1000
O=C(N[C@H](Cc1c[nH]c2ccccc12)C(=O)O)c1ccc(OCCN(Cc2ccccc2)Cc2ccccc2)cc1 [Example 131, (2R)-2-[4-(2-Dibenzylaminoethoxy)benzoylamino]-3-(1H-indol-3-yl)propionic acid]	Partial agonist	1000 to 3000
O=C(NC(Cc1ccc(-c2ccccc2)cc1)C(=O)O)c1ccc(OCCN(Cc2ccccc2)Cc2ccccc2)cc1 (centres unmarked) [Example 136, 3-Biphenyl-4-yl-2-[4-(2-dibenzylaminoethoxy)benzoylamino]propionic acid]	Antagonist	1000 to 3000
O=C(NC(Cc1cccc(Oc2ccccc2)c1)C(=O)O)c1ccc(OCCN(Cc2ccccc2)Cc2ccccc2)cc1 (centres unmarked) [Example 141, 2-[4-(2-Dibenzylaminoethoxy)benzoylamino]-3-(3-phenoxyphenyl)propionic acid]	Antagonist	1000 to 3000
O=C(NC(Cc1c[nH]c2ccc(Br)cc12)C(=O)O)c1ccc(OCCN(Cc2ccccc2)Cc2ccccc2)cc1 (centres unmarked) [Example 142, 3-(5-Bromo-1H-indol-3-yl)-2-[4-(2-dibenzylaminoethoxy)benzoylamino]propionic acid]	Antagonist	1000 to 3000
O=C(N[C@@H](Cc1ccc(OCc2ccccc2)cc1)C(=O)O)c1cccc(OCc2cccc(OCc3ccccc3)c2)c1 [Example 145, (2S)-2-[3-(3-Benzyloxybenzyloxy)benzoylamino]-3-(4-benzyloxyphenyl)propionic acid]	Antagonist	1000 to 3000
O=C(O)CN(Cc1cccc(Oc2ccccc2)c1)C(=O)c1ccc(OCCN(Cc2ccccc2)Cc2ccccc2)cc1 [Example 146, {[4-(2-Dibenzylaminoethoxy)benzoyl]-(3-phenoxybenzyl)amino}acetic acid]	Antagonist	1000 to 3000
O=C(N[C@@H](Cc1ccc(OCc2ccccc2)cc1)C(=O)O)c1ccc(OCCCc2ccccc2)cc1 [Example 153, (2S)-3-(4-Benzyloxyphenyl)-2-[4-(3-phenylpropoxy)benzoylamino]propionic acid]	Partial agonist	1000 to 3000
Cc1nc2ccccc2nc1OCCOc1ccc(C(=O)N[C@@H](Cc2ccc(OCc3ccccc3)cc2)C(=O)O)cc1 [Example 160, (2S)-3-(4-Benzyloxyphenyl)-2-{4-[2-(3-methylquinoxalin-2-yloxy)ethoxy]benzoylamino}propionic acid]	Partial agonist	> 3000
O=C(N[C@@H](Cc1ccc(OCc2ccccc2)cc1)C(=O)O)c1ccc(OCCOc2cccc(Br)c2)cc1 [Example 161, (2S)-3-(4-Benzyloxyphenyl)-2-{4-[2-(3-bromophenoxy)ethoxy]benzoylamino}propionic acid]	Antagonist	1000 to 3000
O=C(O)CCN(Cc1cccc(OCc2ccccc2)c1)C(=O)c1ccc(OCCN(Cc2ccccc2)Cc2ccccc2)cc1 [Example 162, 3-{(3-Benzyloxybenzyl)-[4-(2-dibenzylaminoethoxy)benzoyl]amino}propionic acid]	Antagonist	< 1000
O=C(O)CCN(Cc1cccc(OCc2ccccc2)c1)C(=O)c1cccc(OCCN(Cc2ccccc2)Cc2ccccc2)c1 [Example 163, 3-{(3-Benzyloxybenzyl)-[3-(2-dibenzylaminoethoxy)benzoyl]amino}propionic acid]	Antagonist	< 1000
O=C(O)CCN(Cc1ccc(OCc2ccccc2)cc1)C(=O)c1cccc(OCCN(Cc2ccccc2)Cc2ccccc2)c1 [Example 164, 3-{(4-Benzyloxybenzyl)-[3-(2-dibenzylaminoethoxy)benzoyl]amino}propionic acid]	Antagonist	1000 to 3000
Cc1nc2ccccc2nc1OCCOc1ccc(C(=O)N(CCC(=O)O)Cc2cccc(OCc3ccccc3)c2)cc1 [Example 170, 3-{(3-Benzyloxybenzyl)-{4-[2-(3-methylquinoxalin-2-yloxy)ethoxy]benzoyl}amino}propionic acid]	Antagonist	1000 to 3000
O=C(O)CCN(Cc1ccc(OCc2ccccc2)cc1)C(=O)c1ccc(OCc2cccc(OCc3ccccc3)c2)cc1 [Example 176, 3-{(4-Benzyloxybenzyl)-[4-(3-benzyloxybenzyloxy)benzoyl]amino}propionic acid]	Antagonist	< 1000
Cc1nc2ccccc2nc1OCCOc1cccc(C(=O)N[C@@H](Cc2ccc(OCc3ccccc3)cc2)C(=O)O)c1 [Example 180, (2S)-3-(4-Benzyloxyphenyl)-2-{3-[2-(3-methylquinoxalin-2-yloxy)ethoxy]benzoylamino}propionic acid]	Partial agonist	< 1000
O=C(N[C@@H](Cc1ccc(OCc2ccccc2)cc1)C(=O)O)c1ccc(OCc2ccc(OCc3ccccc3)cc2)cc1 [Example 183, (2S)-2-[4-(4-Benzyloxybenzyloxy)benzoylamino]-3-(4-benzyloxyphenyl)propionic acid]	Partial agonist	< 1000
O=C(N[C@@H](Cc1ccc(OCc2ccccc2)cc1)C(=O)O)c1cccc(OCc2ccc(OCc3ccccc3)cc2)c1 [Example 185, (2S)-2-[3-(4-Benzyloxybenzyloxy)benzoylamino]-3-(4-benzyloxyphenyl)propionic acid]	Partial agonist	< 1000
O=C(N[C@@H](Cc1ccc(OCc2ccccc2)cc1)C(=O)O)c1cccc(OCc2ccc(-c3ccccc3)cc2)c1 [Example 187, (2S)-3-(4-Benzyloxyphenyl)-2-[3-(biphenyl-4-ylmethoxy)benzoylamino]propionic acid]	Agonist	< 1000
O=C(N[C@@H](Cc1ccc(OCc2ccccc2)cc1)C(=O)O)c1cccc(OCc2cccc(Oc3ccccc3)c2)c1 [Example 188, (2S)-3-(4-Benzyloxyphenyl)-2-[3-(3-phenoxybenzyloxy)benzoylamino]propionic acid]	Partial agonist	< 1000
